Values quoted from earlier work as cited in patent US20240358668A1, “METHODS AND CO[…] AM[…] CARD[…] USING (R)-2-AMINO-3-PH[…]” (AXSOME THERAPEUTICS, INC., priority 2021, published 2024).

Settings: prescribing information; or potentially higher; cited from earlier work

SMILES: COC(=O)[C@H](c1ccccc1)[C@H]1CCCCN1 [Focalin, dexmethylphenidate]
- increase in blood pressure: 2-4 mm Hg
